The source of these data is patent US6087355A, “Cephalosporin antibiotics” (Microcide Pharmaceuticals, Inc., priority 1996, dated 2000).

Counter-ions that a name gives are not always drawn. A value given as a limit tells only on which side of the number the result lay.

Assay in all cases: In vitro MIC, agar dilution
Common to all, as to format: cell-based
For orientation: In agar dilution, organisms are placed on agar that contains the substance at set levels.

One assay has as its system E. coli ATCC 25992. The note with it: Escherichia coli, ATCC25992, read-out: minimum inhibitory concentration (MIC). On the procedure: (§1) The compounds of the invention were evaluated against several β-lactamresistant (for example methicillin-resistant, vancomycin resistant, and/or ampicillin-resistant) bacteria strains by determining the minimum inhibitory concentration (MIC, μg/ml) of each compound with respect to each strain. The MIC, the lowest concentration of antibiotic which inhibits growth of the test organism, was determined by the agar dilution method.
(§2) To determine the MIC for bacterial isolates, the test compound was incorporated in a series of two-fold dilutions into liquified Mueller-Hinton agar. Upon solidification, a number of different bacterial strains were spot inoculated with a replicating device onto the agar surface.
(§3) Aliquots of antimicrobial agents were prepared in phosphate buffered saline (PBS) at pH 7.2. Tween 20 or DMSO was used as a solubilizing vehicle as needed. Standard methods of vortexing, sonicating and gentle heat were used to facilitate solubilizing the test agent. […] A 1.28 mg/mL stock solution was used with a subsequent highest working concentration of 128 μg/mL. Serial two-fold dilutions were done through ≤0.25 μg/mL. Each drug level was tested in duplicate. Two-fold drug dilutions were done in sterile 50 mL tubes with a final drug volume of 5 mL. Upon the addition of 45 mL of molten agar, a 10-fold dilution resulted. Two, 25 mL. plates were then poured into 15×150 mm square Petri plates with grids and allowed to harden.
(§4) A control plate with a reference drug, either cefotaxime, vancomycin or imipenem, was used as the positive growth control. Stock concentrations of reference antibiotics were prepared and frozen at -80° C. […] All test plates were used within 24 hours of preparation.
(§5) Satisfactory results were obtained where the inoculum contained about 10^4 colony forming units (cfu)±0.5 logs. Starting with pure cultures of the test isolates on agar plates, a few isolated colonies were transferred to a tube of nutrient broth and allowed to grow 4-6 hours at 35-36° C. to reach log-phase growth. Dropwise addition of the broth culture to PBS was done to match a 0.5 McFarland turbidity standard equal to 10^8 cfu/mL. This was further diluted ten-fold in PBS to reach a working inoculum concentration of 10^7 cfu/mL. When 1 μL of the working inoculum was applied to the agar surface a concentration of about 10^4 cfu per spot was obtained.
(§6) Disposable sterile 1 μL loops were used to inoculate test plates, with each isolate in a designated grid on the agar plate. An alternate method of inoculation involved the use of a replica plater, a device with 48 steel pins allowing the simultaneous inoculation of multiple isolates. After the spots had dried, the plates were incubated at 35-36° C. for 16-20 hours. Endpoints were assessed as the minimum inhibitory concentration (MIC) of antimicrobial agent.

A further assay relates to E. faecalis ATCC 29212. As to conditions: Enterococcus faecalis, ATCC29212, read-out: minimum inhibitory concentration (MIC). On the procedure:
as §1, §2, §3, §4, §5, §6

The subject of a further assay is E. faecalis VanB(Van^R). The note with it: Enterococcus faecalis, read-out: minimum inhibitory concentration (MIC). On the procedure: as §1, §2, §3, §4, §5, §6
For a further assay, the system named is E. faecium A491(Amp^R). As to conditions: Enterococcus faecium, read-out: minimum inhibitory concentration (MIC). On the procedure:
as §1, §2, §3, §4, §5, §6

For another assay, the system named is E. faecium ATCC 35667. As to conditions: Enterococcus faecium, ATCC35667, read-out: minimum inhibitory concentration (MIC). On the procedure: as §1, §2, §3, §4, §5, §6
In a further assay the test system is E. faecium VanA(Van^R). The note with it: Enterococcus faecium, read-out: minimum inhibitory concentration (MIC). How it is done: as §1, §2, §3, §4, §5, §6
The next assay relates to P. aeruginosa ATCC 27853. The note with it: Pseudomonas aeruginosa, ATCC27853, read-out: minimum inhibitory concentration (MIC). How it is done: as §1, §2, §3, §4, §5, §6
The subject of assay [1] is S. aureus 76(Meth^R)(lac^+). The note with it: Staphylococcus aureus, read-out: minimum inhibitory concentration (MIC). On the procedure:
as §1, §2, §3, §4, §5, §6

Assay [2] has as its system S. aureus ATCC 13709(Meth^S). The note with it: Staphylococcus aureus, ATCC13709, S. aureus ATCC 13709(Meth^S); read-out: minimum inhibitory concentration (MIC). How it is done:
as §1, §2, §3, §4, §5, §6

Another assay concerns S. aureus ATCC 29213. As to conditions: Staphylococcus aureus, ATCC29213, read-out: minimum inhibitory concentration (MIC). On the procedure: as §1, §2, §3, §4, §5, §6
Assay [3] deals with S. aureus ATCC 33593(Meth^R). The note with it: Staphylococcus aureus, ATCC33593, read-out: minimum inhibitory concentration (MIC). On the procedure:
as §1, §2, §3, §4, §5, §6

The test system of assay [4] is S. aureus PC1(Meth^S)(lac^+). As to conditions: Staphylococcus aureus, read-out: minimum inhibitory concentration (MIC). How it is done: as §1, §2, §3, §4, §5, §6
In assay [5] the test system is S. aureus Spain #356(Meth^R). As to conditions: Staphylococcus aureus, read-out: minimum inhibitory concentration (MIC). On the procedure:
as §1, §2, §3, §4, §5, §6

For assay [6], the system named is S. haemolyticus 05(Meth^R). As to conditions: Staphylococcus haemolyticus, read-out: minimum inhibitory concentration (MIC). On the procedure:
as §1, §2, §3, §4, §5, §6

Assay [7] concerns S. aureus Col(Meth^R)(lac^-). As to conditions: Staphylococcus aureus, read-out: minimum inhibitory concentration (MIC). On the procedure:
as §1, §2, §3, §4, §5, §6
The S. aureus Col strain is a high-level PBP2a producer, whereas S. aureus Col 8A, its isogenic partner, lacks PBP2a.

On to `CC(C)(N)CSCc1cnccc1SC1=C(C(=O)O)N2C(=O)[C@@H](NC(=O)/C(=N\O)c3nc(N)sc3Cl)[C@H]2SC1` [Cmpd 62, (7R)-7-[(Z)-2-(2-amino-5-chlorothiazol-4-yl)-2-(hydroxyimino)acetamido]-3-(3-(2-amino-2-methylpropylthiomethyl)pyrid-4-ylthio)-3-cephem-4-carboxylate, trifluoroacetic acid salt], for which the MIC in the assay with E. coli ATCC 25992 came to 8 µg/mL; in the assay with E. faecalis ATCC 29212, 0.13 µg/mL; with E. faecalis VanB(Van^R) it was 0.25 µg/mL; with E. faecium A491(Amp^R), 16 µg/mL; in the assay on E. faecium ATCC 35667, 1 µg/mL; with E. faecium VanA(Van^R) it was 2 µg/mL. Also, the MIC in the assay on P. aeruginosa ATCC 27853 is above 32 µg/mL; in [1], 4 µg/mL; in assay [2], 0.5 µg/mL; with S. aureus ATCC 29213 it was 0.5 µg/mL; in [3] it was 4 µg/mL; in assay [4], 0.5 µg/mL. In addition, the MIC in assay [5], in assay [6] and in [7] was 4 µg/mL in each case.
In the case of `NCCCSc1cnccc1SC1=C(C(=O)O)N2C(=O)[C@@H](NC(=O)/C(=N\O)c3nc(N)sc3Cl)[C@H]2SC1` [Cmpd 51, (7R)-7-[(Z)-2-(2-amino-5-chlorothiazol-4-yl)-2-(hydroxyimino)acetamido]-3-(3-(3-aminopropylthio)pyrid-4-ylthio)-3-cephem-4-carboxylate, trifluoroacetic acid salt], the MIC with E. coli ATCC 25992 is 8 µg/mL; in the assay on E. faecalis ATCC 29212 it was 0.13 µg/mL; in the assay on E. faecalis VanB(Van^R) it was 0.25 µg/mL; in the assay on E. faecium A491(Amp^R), 8 µg/mL; with E. faecium ATCC 35667, 0.13 µg/mL; with E. faecium VanA(Van^R), 1 µg/mL. Also, the MIC was above 32 µg/mL with P. aeruginosa ATCC 27853; 4 µg/mL in assay [1]; 0.5 µg/mL in [2]; 0.25 µg/mL in the assay with S. aureus ATCC 29213; 2 µg/mL in assay [3]; 0.5 µg/mL in [4]. For the same compound, the MIC in [5], in [6] and in [7] was 2 µg/mL throughout.
In the case of `N=C(N)SCc1nnsc1SC1=C(C(=O)O)N2C(=O)[C@@H](NC(=O)/C(=N\O)c3csc(N)n3)[C@H]2SC1` [Cmpd 4, (7R)-7-[(Z)-2-(aminothiazol-4-yl)-2-(hydroxyimino)acetamido]-3-(4-isothioureidomethyl-1,2,3-thiadiazol-5-ylthio)-3-cephem-4-carboxylate, trifluoroacetic acid salt], the MIC with E. coli ATCC 25992 was 4 µg/mL; with E. faecalis ATCC 29212, 0.5 µg/mL; with E. faecalis VanB(Van^R), 4 µg/mL; with E. faecium A491(Amp^R) it was above 32 µg/mL; in the assay on E. faecium ATCC 35667 it was 2 µg/mL; in the assay on E. faecium VanA(Van^R), 4 µg/mL. Further, the MIC in the assay with P. aeruginosa ATCC 27853 was above 32 µg/mL; in [1], 8 µg/mL; in assay [2], 0.25 µg/mL; in the assay with S. aureus ATCC 29213 it was 0.25 µg/mL; in assay [3] it was 4 µg/mL; in assay [4], 0.25 µg/mL. Also, the MIC in assay [5], in assay [6] and in assay [7] was 8 µg/mL in each case.
As for `CC(C)(CN)SCc1cnccc1SC1=C(C(=O)O)N2C(=O)[C@@H](NC(=O)/C(=N\O)c3csc(N)n3)[C@H]2SC1` [Cmpd 19, (7R)-7-[(Z)-2-(aminothiazol-4-yl)-2-(hydroxyimino)acetamido]-3-[3-(2-amino-1,1-dimethylethylthiomethyl)pyrid-4-ylthio]-3-cephem-4-carboxylate, trifluoroacetic acid salt], the MIC in the assay on E. coli ATCC 25992 is 8 µg/mL; in the assay with E. faecalis ATCC 29212 it was 1 µg/mL; in the assay on E. faecalis VanB(Van^R), 0.5 µg/mL; in the assay on E. faecium A491(Amp^R), above 32 µg/mL; with E. faecium ATCC 35667 it was 1 µg/mL; with E. faecium VanA(Van^R) it was 2 µg/mL. Also, the MIC was above 32 µg/mL with P. aeruginosa ATCC 27853; 8 µg/mL in [1]; 0.5 µg/mL in assay [2]; 0.5 µg/mL in the assay on S. aureus ATCC 29213; 8 µg/mL in [3]; 0.5 µg/mL in assay [4]. Further, the figures for the MIC in [5], in [6] and in assay [7] were 8 µg/mL, 16 µg/mL and 8 µg/mL, respectively.
In the case of `CC(=N)NCCSCc1cnccc1SC1=C(C(=O)O)N2C(=O)[C@@H](NC(=O)/C(=N\O)c3nc(N)sc3Cl)[C@H]2SC1` [Cmpd 54, (7R)-7-[(Z)-2-(2-amino-5-chlorothiazol-4-yl)-2-(hydroxyimino)acetamido]-3-(3-(N-acetamidinoyl)aminoethylthiomethylpyrid-4-ylthio)-3-cephem-4-carboxylate, trifluoroacetic acid salt], the MIC was 8 µg/mL in the assay on E. coli ATCC 25992; 0.13 µg/mL with E. faecalis ATCC 29212; 0.25 µg/mL with E. faecalis VanB(Van^R); 8 µg/mL with E. faecium A491(Amp^R); 0.5 µg/mL in the assay with E. faecium ATCC 35667; 1 µg/mL with E. faecium VanA(Van^R). Also, the MIC was above 32 µg/mL in the assay with P. aeruginosa ATCC 27853; 2 µg/mL in [1]; 0.25 µg/mL in [2]; 0.25 µg/mL with S. aureus ATCC 29213; 1 µg/mL in assay [3]; 0.25 µg/mL in assay [4]. Moreover, the MIC in [5], in assay [6] and in assay [7] was 2 µg/mL throughout.
For the compound `NCCSCc1cnccc1SC1=C(C(=O)O)N2C(=O)[C@@H](NC(=O)/C(=N\OC3CCCC3)c3csc(N)n3)[C@H]2SC1` [Cmpd 13, (7R)-7-[(Z)-2-(aminothiazol-4-yl)-2-(cyclopentyloxyimino)acetamido]-3-(3-aminoethylthiomethylpyrid-4-ylthio)-3-cephem-4-carboxylate, trifluoroacetic acid salt], the MIC in the assay with E. coli ATCC 25992 is 8 µg/mL; in the assay with E. faecalis ATCC 29212, 1 µg/mL; with E. faecalis VanB(Van^R), 2 µg/mL; in the assay with E. faecium A491(Amp^R) it was above 32 µg/mL; with E. faecium ATCC 35667, 4 µg/mL; with E. faecium VanA(Van^R), 8 µg/mL. The MIC in the assay on P. aeruginosa ATCC 27853 was above 32 µg/mL; in assay [1], 8 µg/mL; in assay [2], 2 µg/mL; in the assay on S. aureus ATCC 29213, 2 µg/mL; in assay [3], 8 µg/mL; in [4], 2 µg/mL. Further, the MIC in assay [5] is 8 µg/mL; in assay [6] it was 8 µg/mL; in assay [7], 4 µg/mL.
Turning to `CN(C)C(=O)CNCCSCc1cnccc1SC1=C(C(=O)O)N2C(=O)[C@@H](NC(=O)/C(=N\O)c3nc(N)sc3Cl)[C@H]2SC1` [Cmpd 61, (7R)-7-[(Z)-2-(2-amino-5-chlorothiazol-4-yl)-2-(hydroxyimino)acetamido]-3-(3-(N,N-dimethylcarboxamidomethylaminoethylthiomethyl)pyrid-4-ylthio)-3-cephem-4-carboxylate, trifluoroacetic acid salt], the MIC is 16 µg/mL in the assay on E. coli ATCC 25992; 0.25 µg/mL with E. faecalis ATCC 29212; 0.25 µg/mL in the assay on E. faecalis VanB(Van^R); 16 µg/mL with E. faecium A491(Amp^R); 1 µg/mL in the assay on E. faecium ATCC 35667; 2 µg/mL with E. faecium VanA(Van^R). Also, the MIC in the assay on P. aeruginosa ATCC 27853 was above 32 µg/mL; in assay [1], 4 µg/mL; in assay [2], 1 µg/mL; in the assay with S. aureus ATCC 29213, 1 µg/mL; in assay [3], 4 µg/mL; in assay [4], 1 µg/mL. Also, the MIC was found to be 4 µg/mL in [5], 8 µg/mL in assay [6] and 4 µg/mL in assay [7].
